# Several values for one entry are separate records, joined by “and”; a condition that tells them apart may be missing. Identical values can stand only once. Like-named read-outs stand apart in the source and are kept apart here. Marks after values point to notes of the source that are not given here.
# Key:
# [1] = In vivo toxicity of Compound 1 in rats; conditions: rat, single bolus intravenous administration, healthy rats
# Source text: The toxicity was due to the vehicle and was attributed to smaller size of infusion vessels, and concurrent catheter tract infection.
# [2] = Pharmacokinetics of Formulation D11 given CIV for 14 days in monkeys; format: in vivo, Cynomolgus monkeys; conditions: for Css / T1/2z / Vd / AUC / clearance: 14-day CIV, Mean (SD); for Css: average between 30 h and 14 days; for T1/2z: end of treatment; for Vd / AUC / clearance: iv
# Procedure: Cynomolgus monkeys received continuous IV infusion over 14 days of Compound 1 at 5 mg/kg/day, 15 mg/kg/day, or 30 mg/kg/day. The drug was infused intravenously (24 hours/day) into the femoral vein at a dose rate of 2 ml/kg/hour for 14 consecutive days. Blood samples were removed from each monkey on Days 1, 2, 6, 10, and 15 of the treatment period. Monkeys were bled by venipuncture and samples were collected into tubes containing K2EDTA. On Day 1, samples were collected at 2, 6, and 12 hours after initiation of treatment. Additional samples were collected at 30 hours after the start of infusion (Day 2). On Days 6 and 10, samples were collected at approximately 6 hours after the bag changes. At the end of the 14 days of infusion, on Day 15, samples were collected at 1 hour prior to cessation of dose administration, and at 5 min, 30 min, 1 h, 2 h, 4 h, 8 h, and 24 h following cessation of dose administration.
# [3] = Population pharmacokinetic analysis (NONMEM), monkey; format: in vivo; conditions: cynomolgus, plasma, iv, Monkey (CIV); for half-life: monkey; for Vd: read-out: Vss
# Source text: (§1) Plasma concentrations of Compound 1 were obtained from mice, rats, and monkeys following intravenous injection or continuous infusion. Compound 1 pharmacokinetic parameters in mice, rats, and monkeys were estimated using population pharmacokinetic analysis, a function of the software program NONMEM™ (version 5). Typical population pharmacokinetic parameters for Compound 1 in humans were extrapolated from allometric equations that were derived from pharmacokinetic parameters estimated in the three animal species. […] A two-compartment model with a first-order elimination from the central compartment adequately described Compound 1 plasma concentration-time profiles following intravenous bolus injection (30 mg/kg) in mice and rats, 7-day continuous infusion in rats (50 to 170 mg/kg/day), and 14-day continuous infusion in monkeys (5 to 30 mg/kg/day).
# [4] = Pharmacokinetics of Formulation D11 given CIV for 14 days in rats; format: in vivo; conditions: both sexes, Sprague-Dawley, rat, plasma; for concentration at 2 h: read-out: mean plasma concentration 2 hours after the end of infusion; for Vd / AUC / clearance: iv, 14-day CIV
# Procedure: Sprague-Dawley rats received an intravenous continuous infusion over 14 days of Compound 1 at 25 mg/kg/day, 50 mg/kg/day, or 75 mg/kg/day at a rate of 2 mL/kg/h for 14 consecutive days (Formulation D11). Blood was collected from the jugular vein in tubes containing K2 EDTA from 3 rats/sex/group at the following time points: 2, 6, and 12 hours after the start of dosing on Day 1, on Day 2 at 6 hours (approximately 30 hours after the start of dosing), on Days 6 and 10 at 6 hours, and on Day 15, 1 hour prior the end of dosing, and then at 5 min, 15 min, 30 min, 1 h, and 2 h after the end of dosing.
# [5] = Population pharmacokinetic analysis (NONMEM), rat; format: in vivo; conditions: plasma, Rat (IV + CIV); for Vd: read-out: Vss; for half-life: rat, iv
# Source text: as §1
# [6] = tested on: human breast tumor (MDA-MB-231) xenografts; assay: Human MDA-MB-231 breast cancer mice model; format: in vivo, HRLN female nude mice; conditions: Intravenous treatment, 100 mg/kg 5/2/5/2/5
# Procedure: The antitumor activity of Compound 1 was further tested in a human MD-MB-231 breast cancer model in mice, using formulation D11 at 6 and 10 mg/mL concentrations (see Table 8). HRLN female nude mice (8 weeks of age) were treated with 5×10^6 MDA-MB-231 tumor cells (sc) in the right flank. Animals were randomized (ten per group) when tumors reach an average size of 80-120 mg and treatment began according to the table below.
# Tumor measurements were taken twice weekly using calipers and were converted to tumor mass (in milligrams) using the formula: with^2 (mm)×length (mm)×0.52. Body weights were also recorded twice weekly. Statistical analysis was done using the unpaired two-tailed Student's t test.
# [7] = cynomolgus monkey, plasma, intravenous, CIV, 30 mg/kg/day
# [8] = cynomolgus monkey, plasma, 5 mg/kg/day
# [9] = cynomolgus monkey, plasma, 15 mg/kg/day
# [10] = population PK, read-out: t1/2, α (converted)
# [11] = population PK, read-out: t1/2, β (converted)
compound,measurement,setting,value
"CC(C)=CCC/C(C)=C/CC/C(C)=C/CN1C(=O)c2cccc(O)c2Nc2c(O)cc(O)cc21 [Compound 1, 10-farnesyl-4,6,8-trihydroxy-dibenzodiazepin-11-one]",MTD,[1],85 mg/kg
same,AUC increase between groups,[2]; 15 mg/kg/day versus 5 mg/kg/day,3.4 fold
same,AUC increase between groups,[2]; 30 mg/kg/day versus 15 mg/kg/day,4.7 fold
same,Css,[2]; 5 mg/kg/day,358^b (85)^ ng/mL
same,T1/2z,[2]; 5 mg/kg/day,12 (3) h
same,Css,[2]; 15 mg/kg/day,"1,173 (340) ng/mL"
same,T1/2z,[2]; 15 mg/kg/day,8.3 (2.2) h
same,Css,[2]; 30 mg/kg/day,"6,283 (3,650) ng/mL"
same,T1/2z,[2]; 30 mg/kg/day,8.1 (1.0) h
same,concentration at 1 day,[2]; [7],2810 ng/mL and ~6.1 µM
same,concentration at 6 day,[2]; [7],4350 ng/mL and ~9.4 µM
same,concentration at 10 day,[2]; [7],~15 µM and 6860 ng/mL
same,concentration at 15 day,[2]; [7],8560 ng/mL and ~18.5 µM
same,Vd,"[2]; cynomolgus monkey, plasma, 5 mg/kg/day, 5 mg/kg/day, read-out: Vss",7.1 L/kg
same,Vd,"[2]; cynomolgus monkey, plasma, 5 mg/kg/day, 5 mg/kg/day, read-out: Vz",10 L/kg
same,Vd,"[2]; cynomolgus monkey, plasma, 15 mg/kg/day, 15 mg/kg/day, read-out: Vss",3.6 L/kg
same,AUC,[2]; [8],119 µg·h/mL
same,clearance,[2]; [8],10.2 mL/min/kg
same,AUC,[2]; [9],400 µg·h/mL
same,clearance,[2]; [9],9.33 mL/min/kg
same,AUC,"[2]; cynomolgus monkey, plasma, 30 mg/kg/day",1870 µg·h/mL
same,Vd,"[2]; cynomolgus, cynomolgus monkey, plasma, 15 mg/kg/day, 15 mg/kg/day, read-out: Vz",6.8 L/kg
same,Vd,"[2]; cynomolgus, cynomolgus monkey, plasma, 30 mg/kg/day, 30 mg/kg/day, read-out: Vss",10.7 L/kg
same,Vd,"[2]; cynomolgus, cynomolgus monkey, plasma, 30 mg/kg/day, 30 mg/kg/day, read-out: Vz",3.2 L/kg
same,clearance,"[2]; cynomolgus, cynomolgus monkey, plasma, 30 mg/kg/day",4.5 mL/min/kg
same,half-life,[3]; [10],0.308 h
same,half-life,[3]; [11],8.05 h
same,clearance,[3]; WT 3.8 Kg,28 mL/min
same,Vd,[3]; WT 3.8 Kg,2.36 L
same,clearance,[3]; population PK,7.35 mL/min/kg
same,Vd,[3]; population PK,0.622 L/kg
same,concentration at 2 h,"[4]; intravenous, 25 mg/kg/day",28 ng/mL
same,concentration at 2 h,"[4]; intravenous, 50 mg/kg/day",53 ng/mL
same,concentration at 2 h,"[4]; intravenous, 75 mg/kg/day",75 ng/mL
same,concentration at 10 day,"[4]; intravenous, CIV, 50 mg/kg/day",1750 ng/mL and ~3.8 µM
same,Vd,"[4]; 25 mg/kg/day, 25 mg/kg/day, read-out: Vss",15.8 L/kg
same,Vd,"[4]; 25 mg/kg/day, 25 mg/kg/day, read-out: Vz",6.8 L/kg
same,Vd,"[4]; 50 mg/kg/day, 50 mg/kg/day, read-out: Vss",38.8 L/kg
same,Vd,"[4]; 50 mg/kg/day, 50 mg/kg/day, read-out: Vz",3.1 L/kg
same,Vd,"[4]; 75 mg/kg/day, 75 mg/kg/day, read-out: Vss",15.4 L/kg
same,Vd,"[4]; 75 mg/kg/day, 75 mg/kg/day, read-out: Vz",3.1 L/kg
same,AUC,[4]; 25 mg/kg/day,116 µg·h/mL
same,clearance,[4]; 25 mg/kg/day,50 mL/min/kg
same,AUC,[4]; 50 mg/kg/day,396 µg·h/mL
same,clearance,[4]; 50 mg/kg/day,30 mL/min/kg
same,AUC,[4]; 75 mg/kg/day,597 µg·h/mL
same,clearance,[4]; 75 mg/kg/day,30 mL/min/kg
same,clearance,[5]; WT 0.225 Kg,4.08 mL/min
same,Vd,[5]; WT 0.225 Kg,0.081 L
same,clearance,[5]; population PK,18.2 mL/min/kg
same,Vd,[5]; population PK,0.362 L/kg
same,half-life,[5]; [10],0.075 h
same,half-life,[5]; [11],2.5 h
same,antitumor activity (in words),[6],did not result in activity

# — US20060276436A1, “Farnesyl dibenzodiazepinone formulation” (Ecopia BioSciences, Inc., priority 2005, published 2006)
